Test results as given in patent US9850283B2, “Macrocyclic inhibitors of the PD-1/PD-L1 and CD80(B7-1)/PD-L1 protein/protein interactions” (BRISTOL-MYERS SQUIBB COMPANY, priority 2013, dated 2017).
Where two headings read alike, the source gives them in different places. Positions of bridges follow the written chain, without caps; N, C: chain ends. Non-standard residues stand in square brackets, D forms with d. Residues, ends and D or L forms follow the SMILES beside them. ξ: configuration not given here. Pro(trans-4-cHex) = O=C(O)[C@@H]1C[C@@H](C2CCCCC2)CN1; Phe(3,4-Cl2) = N[C@@H](Cc1ccc(Cl)c(Cl)c1)C(=O)O; Phe(F5) = N[C@@H](Cc1c(F)c(F)c(F)c(F)c1F)C(=O)O; Trp(1-Me) = Cn1cc(C[C@H](N)C(=O)O)c2ccccc21; Phe(4-NH2) = Nc1ccc(C[C@H](N)C(=O)O)cc1; d(cisHyp) = O=C(O)[C@H]1C[C@@H](O)CN1; Bta = N[C@@H](Cc1csc2ccccc12)C(=O)O; Hyp = O=C(O)[C@@H]1C[C@@H](O)CN1; NMeF = CN[C@@H](Cc1ccccc1)C(=O)O; NMehSer = CN[C@@H](CCO)C(=O)O; NMeNle = CCCC[C@H](NC)C(=O)O; NMeA = CN[C@@H](C)C(=O)O; Orn = NCCC[C@H](N)C(=O)O; dThz = O=C(O)[C@H]1CSCN1; Dab = NCC[C@H](N)C(=O)O; Dap = NC[C@H](N)C(=O)O; ξC = NC(CS)C(=O)O; Sar = CNCC(=O)O

Legend:
[1] = target: T1, LK35.2-hPD-L1 cells / PE-labeled PD-1-Ig (Homo sapiens, UniProt Q9NZQ7); experiment: LK35.2-hPD-L1 cell binding high-content screening assay; assay type: cell-based
T1 construct: expressed in transfected cells; host or cells: LK35.2 mouse B cell line
T1 sequence (Q9NZQ7 19-290): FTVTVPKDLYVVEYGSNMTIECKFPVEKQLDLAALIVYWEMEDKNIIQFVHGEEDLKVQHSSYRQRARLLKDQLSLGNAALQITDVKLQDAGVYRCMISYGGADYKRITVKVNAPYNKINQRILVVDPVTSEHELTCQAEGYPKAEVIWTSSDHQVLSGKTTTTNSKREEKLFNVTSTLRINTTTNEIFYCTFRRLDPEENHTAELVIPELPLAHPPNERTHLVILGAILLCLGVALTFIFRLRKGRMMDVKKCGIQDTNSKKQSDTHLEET
Method in brief: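 Binding of PE-conjugated human PD-1-Ig (1 nM final) to human PD-L1 stably expressed on a mouse B-cell line (LK35.2) was measured by high-content imaging after washes. Compound and labeled PD-1-Ig were co-incubated 1 h at 37 °C with cells in RPMI/10% FCS.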

Human PD-L1/PD-1 = target: T2, Human PD-L1/PD-1 (Homo sapiens, UniProt Q9NZQ7); experiment: HTRF PD-1-Ig/PD-L1-His binding assay (human PD-L1)
T2 construct: made in house; host or cells: HEK293T
T2 sequence (Q9NZQ7 with tags, fused parts or gaps): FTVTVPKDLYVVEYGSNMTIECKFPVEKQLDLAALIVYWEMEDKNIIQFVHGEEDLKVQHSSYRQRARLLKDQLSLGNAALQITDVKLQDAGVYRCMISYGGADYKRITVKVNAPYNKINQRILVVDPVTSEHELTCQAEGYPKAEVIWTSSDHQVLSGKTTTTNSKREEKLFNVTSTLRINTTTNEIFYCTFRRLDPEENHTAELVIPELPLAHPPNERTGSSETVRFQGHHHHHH
Method in brief: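 Readout: time-resolved FRET between Eu cryptate-labeled anti-Ig (1 nM final) and APC-labeled anti-His (20 nM final) antibodies. These detect interaction of Fc-fused PD-1 with His-tagged human PD-L1 in dPBS containing 0.1% BSA and 0.05% Tween-20.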

[2] = cluster symbol, cell line of CBA not given (LK35.2-hPD-L1 or 293T-hPD-L1), read-out: CBA IC50 cluster
[3] = cluster symbol, read-out: HTRF IC50 cluster
[4] = cell binding assay, cell line not given, cluster symbol, read-out: CBA IC50 cluster

Row | IC50 [1, 2] | IC50 (Human PD-L1/PD-1; [3]) | IC50 ([1]; cell binding assay, cell line not given, value given instead of cluster, read-out: CBA IC50 value) | IC50 (Human PD-L1/PD-1; value given instead of cluster, read-out: HTRF IC50 value) | IC50 [1, 4] | SMILES
1 | 4.78 to 72.9 nM | > 30.5 nM | – | – | – | CCCC[C@H]1C(=O)N(C)CC(=O)N[C@@H](CC(=O)O)C(=O)N[C@@H](C(C)C)C(=O)N(C)[C@@H](Cc2ccccc2)C(=O)N[C@@H](Cc2c(F)c(F)c(F)c(F)c2F)C(=O)N(C)CC(=O)N[C@@H](Cc2c[nH]c3ccccc23)C(=O)N[C@@H](Cc2ccc(O)cc2)C(=O)N[C@@H](CC(C)C)C(=O)N[C@H](C(=O)NCC(N)=O)CSCC(=O)N[C@@H](Cc2ccccc2)C(=O)N(C)[C@@H](Cc2ccccc2)C(=O)N1C [Example 3079] ({CH2CO}-F[NMeF][NMeNle][Sar]DV[NMeF][Phe(F5)][Sar]WYLCG-NH2; thioether N-13)
2 | – | – | 1.79 nM | 6.91 nM | – | CCCC[C@H]1C(=O)N(C)CC(=O)N[C@@H](CC(=O)O)C(=O)N[C@@H](C(C)C)C(=O)N(C)[C@@H](Cc2ccccc2)C(=O)N[C@@H](Cc2ccc(O)cc2)C(=O)N2CSC[C@@H]2C(=O)N[C@@H](Cc2c[nH]c3ccccc23)C(=O)N[C@@H](Cc2ccc(O)cc2)C(=O)N[C@@H](CC(C)C)C(=O)N[C@H](C(=O)NCC(N)=O)CSCC(=O)N[C@@H](Cc2ccccc2)C(=O)N(C)[C@@H](Cc2ccccc2)C(=O)N1C [Example 3601] ({CH2CO}-F[NMeF][NMeNle][Sar]DV[NMeF]Y[dThz]WYLCG-NH2; thioether N-13)
3 | – | 6.76 to 30.3 nM | – | – | 0.158 to 4.71 nM | CCCC[C@H]1C(=O)N(C)[C@@H](CCCC)C(=O)N[C@@H](CCCNC(=N)N)C(=O)NC(C(=O)N[C@@H](CO)C(N)=O)CSCC(=O)N[C@@H](Cc2ccc(O)cc2)C(=O)N(C)[C@@H](C)C(=O)N[C@@H](CC(N)=O)C(=O)N2CCC[C@H]2C(=O)N[C@@H](Cc2cnc[nH]2)C(=O)N[C@@H](CC(C)C)C(=O)N2CCC[C@H]2C(=O)N[C@@H](Cc2c[nH]c3ccccc23)C(=O)N[C@@H](CO)C(=O)N[C@@H](Cc2c[nH]c3ccccc23)C(=O)N1C (stereo partly shown) [Example 9037] ({CH2CO}-Y[NMeA]NPHLPWSW[NMeNle][NMeNle]R[ξC]S-NH2; thioether N-14)
4 | 4.78 to 72.9 nM | 6.76 to 30.3 nM | – | – | – | CCCC[C@H]1C(=O)N(C)CC(=O)N[C@@H](CC(=O)O)C(=O)N[C@@H](C(C)C)C(=O)N(C)[C@@H](Cc2ccccc2)C(=O)N[C@@H](Cc2ccc(O)cc2)C(=O)N(C)CC(=O)N[C@@H](Cc2c[nH]c3ccccc23)C(=O)N[C@@H](Cc2ccc(N)cc2)C(=O)N[C@@H](CC(C)C)C(=O)N[C@H](C(=O)NCC(N)=O)CSCC(=O)N[C@@H](Cc2ccccc2)C(=O)N(C)[C@@H](Cc2ccccc2)C(=O)N1C [Example 3140] ({CH2CO}-F[NMeF][NMeNle][Sar]DV[NMeF]Y[Sar]W[Phe(4-NH2)]LCG-NH2; thioether N-13)
5 | 0.158 to 4.71 nM | 6.76 to 30.3 nM | – | – | – | CCCC[C@H]1C(=O)N(C)[C@@H](CCCC)C(=O)N[C@@H](CCCNC(=N)N)C(=O)N[C@H](C(=O)NCC(N)=O)CSCC(=O)N[C@@H](Cc2ccc(O)cc2)C(=O)N(C)[C@@H](C)C(=O)N[C@@H](CC(N)=O)C(=O)N2CCC[C@H]2C(=O)N[C@@H](Cc2cnc[nH]2)C(=O)N[C@@H](CC(C)C)C(=O)N2C[C@H](O)C[C@H]2C(=O)N[C@@H](Cc2c[nH]c3ccccc23)C(=O)N[C@@H](CO)C(=O)N[C@@H](Cc2csc3ccccc23)C(=O)N1C [Example 1035] ({CH2CO}-Y[NMeA]NPHL[Hyp]WS[Bta][NMeNle][NMeNle]RCG-NH2; thioether N-14)
6 | – | 0.385 to 6.74 nM | – | – | 0.158 to 4.71 nM | CCCC[C@H]1C(=O)N(C)[C@@H](CCOC)C(=O)N[C@@H](CCCNC(=N)N)C(=O)N[C@H](C(=O)NCC(N)=O)CSCC(=O)N[C@@H](Cc2ccc(O)cc2)C(=O)N(C)[C@@H](C)C(=O)N[C@@H](CC(N)=O)C(=O)N2CCC[C@H]2C(=O)N[C@@H](Cc2cnc[nH]2)C(=O)N[C@@H](CC(C)C)C(=O)N2C[C@H](O)C[C@@H]2C(=O)N[C@@H](Cc2c[nH]c3ccccc23)C(=O)N[C@@H](CO)C(=O)N[C@@H](Cc2csc3ccccc23)C(=O)N1C [Example 9006] ({CH2CO}-Y[NMeA]NPHL[d(cisHyp)]WS[Bta][NMeNle][NMehSer](Me)RCG-NH2; thioether N-14)
7 | – | 0.385 to 6.74 nM | – | – | 0.158 to 4.71 nM | CCCC[C@H]1C(=O)N[C@@H](CN)C(=O)N[C@H](C(=O)NCC(N)=O)CSCC(=O)N[C@@H](Cc2ccc(O)cc2)C(=O)N(C)[C@@H](C)C(=O)N[C@@H](CC(N)=O)C(=O)N2CCC[C@H]2C(=O)N[C@@H](Cc2c[nH]cn2)C(=O)N[C@@H](CCC(=O)O)C(=O)N2C[C@H](O)C[C@H]2C(=O)N[C@@H](Cc2c[nH]c3ccccc23)C(=O)N[C@@H](CCN)C(=O)N[C@@H](Cc2c[nH]c3ccccc23)C(=O)N(C)[C@@H](Cc2ccccc2)C(=O)N1C [Example 5144] ({CH2CO}-Y[NMeA]NPHE[Hyp]W[Dab]W[NMeF][NMeNle][Dap]CG-NH2; thioether N-14)
8 | > 74.3 nM | > 30.5 nM | – | – | – | CCCC[C@H]1C(=O)N(C)CC(=O)N[C@@H](CC(=O)O)C(=O)N[C@@H](C(C)C)C(=O)N(C)[C@@H](Cc2ccccc2)C(=O)N[C@@H](Cc2ccc(O)cc2)C(=O)N(C)CC(=O)N[C@@H](Cc2c[nH]c3ccccc23)C(=O)N[C@@H](Cc2ccc(Cl)c(Cl)c2)C(=O)N[C@@H](CC(C)C)C(=O)N[C@H](C(=O)NCC(N)=O)CSCC(=O)N[C@@H](Cc2ccccc2)C(=O)N(C)[C@@H](Cc2ccccc2)C(=O)N1C [Example 3100] ({CH2CO}-F[NMeF][NMeNle][Sar]DV[NMeF]Y[Sar]W[Phe(3,4-Cl2)]LCG-NH2; thioether N-13)
9 | 0.158 to 4.71 nM | > 30.5 nM | – | – | – | CCCC[C@H]1C(=O)N(C)[C@@H](CCCC)C(=O)N[C@@H](CCCNC(=N)N)C(=O)N[C@H](C(=O)NCC(N)=O)CSCC(=O)N[C@@H](Cc2ccc(O)cc2)C(=O)N(C)[C@@H](C)C(=O)N[C@@H](CC(N)=O)C(=O)N2CCC[C@H]2C(=O)N[C@@H](Cc2cnc[nH]2)C(=O)N[C@@H](CC(C)C)C(=O)N2CCC[C@H]2C(=O)N[C@@H](Cc2c[nH]c3ccccc23)C(=O)N[C@@H](CO)C(=O)N[C@@H](Cc2cn(C)c3ccccc23)C(=O)N1C [Example 1130] ({CH2CO}-Y[NMeA]NPHLPWS[Trp(1-Me)][NMeNle][NMeNle]RCG-NH2; thioether N-14)
10 | 0.158 to 4.71 nM | 0.385 to 6.74 nM | – | – | – | CCCC[C@H]1C(=O)N(C)[C@@H](CCCC)C(=O)N[C@@H](CCCN)C(=O)N[C@H](C(=O)NCC(N)=O)CSCC(=O)N[C@@H](Cc2ccc(O)cc2)C(=O)N(C)[C@@H](C)C(=O)N[C@@H](CC(=O)O)C(=O)N2CCC[C@H]2C(=O)N[C@@H](CN)C(=O)N[C@@H](CCC(=O)O)C(=O)N2C[C@H](O)C[C@H]2C(=O)N[C@@H](Cc2c[nH]c3ccccc23)C(=O)N[C@@H](CCN)C(=O)N[C@@H](Cc2csc3ccccc23)C(=O)N1C [Example 1183] ({CH2CO}-Y[NMeA]DP[Dap]E[Hyp]W[Dab][Bta][NMeNle][NMeNle][Orn]CG-NH2; thioether N-14)
11 | 0.158 to 4.71 nM | 0.385 to 6.74 nM | – | – | – | CCCC[C@H]1C(=O)N(C)[C@@H](CCCC)C(=O)N[C@@H](CCCN)C(=O)N[C@H](C(=O)NCC(N)=O)CSCC(=O)N[C@@H](Cc2ccc(O)cc2)C(=O)N(C)[C@@H](C)C(=O)N[C@@H](CC(N)=O)C(=O)N2CCC[C@H]2C(=O)N[C@@H](Cc2cnc[nH]2)C(=O)N[C@@H](CC(C)C)C(=O)N2C[C@H](O)C[C@H]2C(=O)N[C@@H](Cc2c[nH]c3ccccc23)C(=O)N[C@@H](CO)C(=O)N[C@@H](Cc2c[nH]c3ccccc23)C(=O)N1C [Example 1123]
12 | > 74.3 nM | > 30.5 nM | – | – | – | CCCC[C@H]1C(=O)N(C)[C@@H](CCCC)C(=O)N[C@@H](CCCNC(=N)N)C(=O)N[C@H](C(=O)NCC(N)=O)CSCC(=O)N[C@@H](Cc2ccc(O)cc2)C(=O)N(C)[C@@H](CCC(=O)O)C(=O)N[C@@H](CC(N)=O)C(=O)N2CCC[C@H]2C(=O)N[C@@H](Cc2cnc[nH]2)C(=O)N[C@@H](CC(C)C)C(=O)N(C)CC(=O)N[C@@H](Cc2c[nH]c3ccccc23)C(=O)N[C@@H](CO)C(=O)N[C@@H](Cc2c[nH]c3ccccc23)C(=O)N1C [Example 1189]
13 | – | 0.385 to 6.74 nM | – | – | 0.158 to 4.71 nM | CCCC[C@H]1C(=O)N(C)[C@@H](CCCC)C(=O)N[C@@H](CCC(=O)O)C(=O)N[C@H](C(=O)NCC(N)=O)CSCC(=O)N[C@@H](Cc2ccc(O)cc2)C(=O)N(C)[C@@H](C)C(=O)N[C@@H](CC(=O)O)C(=O)N2CCC[C@H]2C(=O)N[C@@H](Cc2c[nH]cn2)C(=O)N[C@@H](CCCCN)C(=O)N2C[C@H](C3CCCCC3)C[C@H]2C(=O)N[C@@H](Cc2c[nH]c3ccccc23)C(=O)N[C@@H](CCCCN)C(=O)N[C@@H](Cc2c[nH]c3ccccc23)C(=O)N1C [Example 14008] ({CH2CO}-Y[NMeA]DPHK[Pro(trans-4-cHex)]WKW[NMeNle][NMeNle]ECG-NH2; thioether N-14)
14 | > 74.3 nM | > 30.5 nM | – | – | – | CCCC[C@H]1C(=O)N(C)CC(=O)N[C@@H](CC(=O)O)C(=O)N[C@@H](C(C)C)C(=O)N(C)[C@@H](Cc2cnc[nH]2)C(=O)N[C@@H](Cc2ccc(O)cc2)C(=O)N(C)CC(=O)N[C@@H](Cc2c[nH]c3ccccc23)C(=O)N[C@@H](Cc2ccc(O)cc2)C(=O)N[C@@H](CC(C)C)C(=O)N[C@H](C(=O)NCC(N)=O)CSCC(=O)N[C@@H](Cc2ccccc2)C(=O)N(C)[C@@H](Cc2ccccc2)C(=O)N1C [Example 3057] (HELM PEPTIDE1{[O=C(C[*:3])[*:2]].F.[meF].[CCCC[C@@H](C(=O)[*:2])N(C)[*:1]].[Sar].D.V.[meH].Y.[Sar].W.Y.L.C.G.[am]}$PEPTIDE1,PEPTIDE1,1:R3-14:R3$$$V2.0)
